From paper PMC5365648, “Pharmacokinetics of the Novel Echinocandin CD101 in Multiple Animal Species” (Antimicrobial Agents and Chemotherapy, 2017)
Where two headings read alike, the source gives them in different places. Starred links: 1 amine or outer side, 2 acyl side, 3 side chain; linkers in the order of their positions; H or OH if unused. Positions of bridges follow the written chain, without caps; N, C: chain ends. Non-standard residues stand in square brackets, D forms with d. Residues, ends and D or L forms follow the SMILES beside them. *: point of attachment. Orn(4R-OH,5R-OCH2CH2NMe3+) = C[N+](C)(C)CCO[C@@H](N[*:3])[C@H](O)C[C@H](N[*:1])C(=O)[*:2]; pTerphenylCO(4''-OnC5H11) = CCCCCOc1ccc(-c2ccc(-c3ccc(C(=O)*)cc3)cc2)cc1; hTyr(3S-OH,4S-OH) = N[C@H](C(=O)O)[C@H](O)[C@@H](O)c1ccc(O)cc1; Pro(3S-OH,4S-Me) = C[C@H]1CN[C@H](C(=O)O)[C@H]1O; Hyp = O=C(O)[C@@H]1C[C@@H](O)CN1

How the values were obtained:
[1] = Rat tissue distribution after i.v. bolus; type: in vivo, Sprague-Dawley rats; conditions: for Kp: rat, iv
Method: (§1) In one of three rat studies reported here, a single 5-, 15-, or 45-mg/kg dose of CD101 was administered by slow i.v. bolus (∼3 min) to Sprague-Dawley rats (n = 3 to 5/dose). Blood samples (via jugular vein catheter [JVC]) were drawn for plasma processing at 0.083, 0.25, 0.5, 1, 2, 4, 8, 24, 48, 120, 168, and 240 h after dosing. In the second rat study, conducted to assess tissue distribution, a single 5-mg/kg dose of CD101 was administered by slow i.v. bolus (∼3 min) to male Sprague-Dawley rats (n = 3 animals/time point). Blood samples (via cardiac puncture) were collected for plasma processing predose and at 0.083, 0.5, 1, 2, 4, 8, 24, 48, 72, 96, and 120 h postdose. In parallel with blood collection, animals were euthanized, and tissues (liver, lungs, kidneys, heart, spleen, and brain) were excised and frozen prior to analysis. In the third rat study, conducted to assess excretion, a single 5-mg/kg dose of CD101 was administered by slow i.v. bolus (∼3 min) to bile duct-cannulated male Sprague-Dawley rats (n = 3). Bile samples were collected from each animal into prelabeled bile collection tubes predose and at 0 to 8, 8 to 24, 24 to 48, 48 to 72, 72 to 96, and 96 to 120 h postdose; urine samples were collected from each animal at the same time points pre- and postdose.
(§2) For each of the pharmacokinetic studies, whole-blood samples (K3EDTA as anticoagulant) were collected and centrifuged within 30 min of collection. The resulting plasma was harvested and stored at −20°C until analysis. Tissue samples were homogenized by a bead-based homogenizer following the addition of deionized water to excised tissue in a 2:1 (vol/wt) ratio and stored at −20°C until analysis. Prior to analysis, plasma or homogenized tissue samples were quenched with acetonitrile (3:1, acetonitrile-plasma or tissue ratio) containing an appropriate internal standard (isotopically labeled d9-CD101 [mouse and rat] or a structural analog [dog, monkey, and chimpanzee]). Plasma and tissue homogenate concentrations (quantified against calibration standards processed the same way) were determined by reverse-phase, gradient liquid chromatography with tandem mass spectrometric detection (LC-MS/MS) using an AB-SCIEX API 3200Q/4000 mass spectrometry system. Calibration standard ranges were the following: 0.400 (lower limit of quantitation, [LLOQ]) to 200 μg/ml (CD101, mouse), 0.040 (LLOQ) to 10 μg/ml (anidulafungin, mouse), 0.002 (LLOQ) to 10 μg/ml (CD101, rat), 0.005 (LLOQ) to 10 μg/ml (anidulafungin, rat), 0.050 (LLOQ) to 10 μg/ml (CD101, dog), 0.020 (LLOQ) to 10 μg/ml (anidulafungin, dog), 0.010 (LLOQ) to 10 μg/ml (CD101, monkey), 0.001 (LLOQ) to 10 μg/ml (anidulafungin, monkey), 0.015 (LLOQ) to 10 μg/ml (CD101, chimpanzee), and 0.015 (LLOQ) to 10 μg/ml (anidulafungin, chimpanzee). When necessary, dilutions with blank matrix were made for samples that quantified above the upper limit of quantitation. The methods used in the analysis were qualified as fit for purpose: calibration standards were matrix matched with the exception that human plasma calibration standards were used to analyze chimpanzee plasma samples due to the rarity of blank chimpanzee plasma, and, for each analytical batch, triplicate calibration standards were included at the beginning, approximately in the middle, and at the end of the batch. Following analysis, quantitation was carried out by a calibration curve comprising the analyte/internal standard area ratio versus concentration. Analytical batch acceptance followed the general guidance that triplicate standards/quality controls be within ±20% for accuracy (percentage of nominal concentration) and ≤20% for precision (percent coefficient of variation).
(§3) Pharmacokinetic parameters were calculated by noncompartmental analysis using Phoenix WinNonlin (version 6.3; Pharsight, Mountain View, CA) from either individual or mean (mouse) concentration-time profiles. An unpaired t test was used to compare mean exposures from male and female rats.

[2] = Excretion in bile duct-cannulated rats; type: in vivo, Sprague-Dawley rats; conditions: for dose excreted at 120 h: bile duct-cannulated male Sprague-Dawley rats, single 5 mg/kg i.v. bolus, over 5 days, n = 3
Method: as §1
as §2, with “Analytical batch acceptance followed the general guidance that triplicate standards/quality controls be within ±20% for accuracy (percentage of nominal concentration) and ≤20% for precision (percent coefficient of variation).” left out

[3] = Dog pharmacokinetics, i.v. bolus; conditions: in vivo, iv, male beagle dogs, single 1.4 mg/kg slow i.v. bolus, plasma, LC-MS/MS, noncompartmental
Method: as §2, §3

[4] = Rat pharmacokinetics, i.v. bolus; type: in vivo, Sprague-Dawley rats; conditions: plasma, LC-MS/MS, noncompartmental, n = 3 to 5/dose
Method: as §1, §2, §3

[5] = male Sprague-Dawley rats, single 5 mg/kg i.v. bolus
[6] = male Sprague-Dawley rats, single 5 mg/kg i.v. bolus, t = 120 h, LC-MS/MS, n = 3/time point
[7] = rat, in vivo, iv, 5 mg/kg, female Sprague-Dawley rats, single 5 mg/kg slow i.v. bolus
[8] = rat, in vivo, iv, 5 mg/kg, male Sprague-Dawley rats, single 5 mg/kg slow i.v. bolus

Q: With CCCCCOc1ccc(-c2ccc(-c3ccc(C(=O)N[C@H]4C[C@@H](O)[C@@H](OCC[N+](C)(C)C)NC(=O)[C@@H]5[C@@H](O)[C@@H](C)CN5C(=O)[C@H]([C@@H](C)O)NC(=O)[C@H]([C@H](O)[C@@H](O)c5ccc(O)cc5)NC(=O)[C@@H]5C[C@@H](O)CN5C(=O)[C@H]([C@@H](C)O)NC4=O)cc3)cc2)cc1 [CD101] ({pTerphenylCO(4''-OnC5H11)}-[Orn(4R-OH,5R-OCH2CH2NMe3+)]T[Hyp][hTyr(3S-OH,4S-OH)]T[Pro(3S-OH,4S-Me)]; lactam 1-C) as the molecule, how does the “Tmax in brain tissue” value [1, 5] read?
A: 48 h

Q: And the “Tmax in heart tissue” value [1, 5]?
A: 480 min

Q: And the “time of maximum concentration in plasma and tissues except heart and brain (first sampling time)” value [1, 5]?
A: 5 min

Q: What about the “Mean AUC0–t in brain tissue” value [1, 6] of the same molecule?
A: 145 µg·h/g

Q: And the “Mean AUC0–t in kidney tissue” value [1, 6]?
A: 1,100 μg · hr/g

Q: What about the Kp ([1]; male, Sprague-Dawley, kidney, lung, liver, spleen / plasma, rats, 5 mg/kg i.v., read-out: Tissue/plasma AUC ratio, fold higher in major organs (kidney, lung, liver, spleen) than in plasma) of the same molecule?
A: 4 to 5

Q: What about the Kp ([1]; brain / plasma, male Sprague-Dawley rats, single 5 mg/kg i.v. bolus, t = 120 h, tissue homogenate, LC-MS/MS, n = 3/time point, read-out: Tissue/plasma AUC0–t ratio, brain) of the same molecule?
A: 0.609

Q: And the Kp ([1]; heart / plasma, male Sprague-Dawley rats, single 5 mg/kg i.v. bolus, t = 120 h, tissue homogenate, LC-MS/MS, n = 3/time point, read-out: Tissue/plasma AUC0–t ratio, heart)?
A: 1.09

Q: And the Kp ([1]; kidney, male Sprague-Dawley rats, single 5 mg/kg i.v. bolus, t = 120 h, tissue homogenate, LC-MS/MS, n = 3/time point, read-out: Tissue/plasma AUC0–t ratio, kidney)?
A: 4.62

Q: And the Kp ([1]; liver, male Sprague-Dawley rats, single 5 mg/kg i.v. bolus, t = 120 h, tissue homogenate, LC-MS/MS, n = 3/time point, read-out: Tissue/plasma AUC0–t ratio, liver)?
A: 4.14

Q: And the Kp ([1]; lung, male Sprague-Dawley rats, single 5 mg/kg i.v. bolus, t = 120 h, tissue homogenate, LC-MS/MS, n = 3/time point, read-out: Tissue/plasma AUC0–t ratio, lung)?
A: 4.33

Q: And the Kp ([1]; spleen / plasma, male Sprague-Dawley rats, single 5 mg/kg i.v. bolus, t = 120 h, tissue homogenate, LC-MS/MS, n = 3/time point, read-out: Tissue/plasma AUC0–t ratio, spleen)?
A: 3.87

Q: And the dose excreted ([2]; male, Sprague-Dawley, rat, bile plus faeces, iv, bile duct-cannulated rats, 5 mg/kg i.v., bile plus feces)?
A: ~50%

Q: And the “biotransformation in plasma, bile samples, and excreta” value ([2]; nonradiolabeled material, rats, data not shown)?
A: no biotransformation was observed

Q: What about the dose excreted at 120 h ([2]; rat, faeces, iv, intact drug, read-out: mean cumulative amount excreted into feces, % of total dose) of the same molecule?
A: 27.7%

Q: What about the dose excreted at 120 h ([2]; rat, iv, intact drug, read-out: mean cumulative amount excreted into bile, % of total dose) of the same molecule?
A: 22.6%

Q: What about the dose excreted at 120 h ([2]; rat, urine, iv, read-out: total dose recovered in urine) of the same molecule?
A: 1.4%

Q: What about the AUC(0-t) ([3]; n = 4) of the same molecule?
A: 48.7 µg·h/mL

Q: What about the Cmax ([3]; n = 4) of the same molecule?
A: 1570 ng/mL

Q: What about the Tmax ([3]; n = 4) of the same molecule?
A: 4.98 min

Q: What about the clearance ([3]; n = 4, read-out: CL (clearance)) of the same molecule?
A: 0.301 mL/min/kg

Q: And the Tmax ([4]; female Sprague-Dawley rats, single 5 mg/kg slow i.v. bolus)?
A: 4.98 min

Q: What about the Tmax ([4]; male Sprague-Dawley rats, single 15 mg/kg slow i.v. bolus) of the same molecule?
A: 4.98 min

Q: What about the Tmax ([4]; male Sprague-Dawley rats, single 45 mg/kg slow i.v. bolus) of the same molecule?
A: 4.98 min

Q: And the AUC(0-inf) [4, 7]?
A: 188 µg·h/mL

Q: And the AUC(0-t) [4, 7]?
A: 185 µg·h/mL

Q: And the Cmax [4, 7]?
A: 10500 ng/mL

Q: What about the half-life [4, 7] of the same molecule?
A: 35.7 h

Q: What about the clearance ([4]; rat, in vivo, iv, 5 mg/kg, female Sprague-Dawley rats, single 5 mg/kg slow i.v. bolus, read-out: CL (clearance)) of the same molecule?
A: 0.444 mL/min/kg

Q: And the Vd ([4]; rat, in vivo, iv, 5 mg/kg, female Sprague-Dawley rats, single 5 mg/kg slow i.v. bolus, read-out: Vss (volume of distribution at steady state))?
A: 1.21 L/kg

Q: What about the AUC(0-inf) [4, 8] of the same molecule?
A: 183 µg·h/mL

Q: What about the AUC(0-t) [4, 8] of the same molecule?
A: 180 µg·h/mL

Q: What about the Cmax [4, 8] of the same molecule?
A: 12000 ng/mL
